Among the data in US12240846B2 (Enliven Inc., priority 2020, dated 2025) are IC50 values, retold here.

Structures can show the parent of a compound that is named as a salt. Where only a bound is given, the exact number is not on record here.

One experiment concerns K562 cells. The experiment can be described thus: K562 cell proliferation assay (CellTiter-Glo). The format is cell-based. As to conditions: Homo sapiens, K562 cell viability, 72 hours, read-out: Cell Line (IC50, nM) K562. As for the experimental part: (§1) K562 and HL60 Cell Proliferation Assay
(§2) K562 and HL60 cells, cultured in Iscove's Modified Dulbecco's Media (IMDM) supplemented with 10% FBS, were harvested at 50-80% confluency and plated at 2,000 cells per well (K562) or 1,500 cells per well (HL60) in 384-well tissue culture plates. A subset of wells contained media only (low control, LC). […] The plates were placed in a 37° C. incubator with 5% CO2 for 72 hours. Cell viability was measured using a CellTiter-Glo luminescent cell viability assay (Promega), which allows for relative quantification of metabolically active cells by luminescence-based measurements of intracellular ATP concentrations. Briefly, plates were removed from the incubator and equilibrated for 15 minutes at room temperature prior to the addition of 40 μL of CellTiter-Glo reagent. Plates were then incubated for 30 minutes at room temperature. Luminescence was measured using an EnSpire plate reader (Perkin Elmer). As noted above, luminescence values from wells with DMSO only or media without cells were used as high and low controls (HC and LC), respectively. Normalized percent viability was calculated as follows: percent viability=100×(Lumsample−LumLC)/(LumHC−LumLC).
(In general: ATP-based viability assays read luminescence as a measure of living cells.)

The test system of a further experiment is HL60 cells. The experiment can be described thus: HL60 cell proliferation assay (CellTiter-Glo). In kind it is cell-based. The settings on record: Homo sapiens, HL-60, HL60 cell viability, 72 hours, read-out: Cell Line (IC50, nM) HL60. As to the method:
as §1, §2

A further experiment has as its target ABL1 (T315I) (Homo sapiens, UniProt P00519, T315I). The experiment can be described thus: Luminescence-based ABL kinase assay (300 μM ATP), ADP-Glo. The format is biochemical. (In general: ADP-Glo turns the ADP formed in a reaction into a luminescent signal.)
Another experiment concerns the target T1, ABL1 (Homo sapiens, UniProt P00519).
T1 construct: purchased Carna Biosciences
The experiment is described as above. The format is biochemical. From the text:
Compounds were serially diluted in DMSO. […] Luminescence signal positively correlates with kinase activity.

With `COc1ncc(F)c(OC)c1-c1cc2cc(NC(=O)[C@@H]3C[C@H]3CN(C)C)ncc2n1C` (single isomer, unassigned) [Compound 130], the IC50 with K562 cells was 108 nM; in the experiment with HL60 cells, over 10000 nM; against ABL1 (T315I) it was 58.1 nM; against ABL1, 37.3 nM.

In the case of `COc1ccccc1-c1cc2cc(NC(=O)C3CC3)ncc2n1C` [Compound 2, N-(2-(2-methoxyphenyl)-1-methyl-1H-pyrrolo[2,3-c]pyridin-5-yl)cyclopropanecarboxamide], the IC50 in the experiment on K562 cells was 109 nM; in the experiment on HL60 cells, 202 nM; at ABL1 (T315I) it was 17.7 nM; against ABL1, 25.4 nM.

Regarding `Cc1c(O)cccc1-c1cc2cc(NC(=O)C3CC3)ncc2n1C` [Compound 7, N-[2-(3-hydroxy-2-methylphenyl)-1-methylpyrrolo[2,3-c]pyridin-5-yl]cyclopropanecarboxamide], the IC50 with K562 cells came out at 37.8 nM; in the experiment with HL60 cells it was 60.9 nM; at ABL1 (T315I) it was 6.59 nM; against ABL1, 9.22 nM.

Take `COc1cccc(C)c1-c1cc2cc(NC(=O)C3CC3)ncc2n1C` [Compound 11, N-[2-(2-methoxy-6-methylphenyl)-1-methylpyrrolo[2,3-c]pyridin-5-yl]cyclopropanecarboxamide]: the IC50 stood at 0.421 nM in the experiment with K562 cells, 182 nM with HL60 cells, 38.6 nM against ABL1 (T315I) and 13.8 nM on ABL1.

In the case of `Cc1c(O)cccc1-c1cc2cc(NC(=O)[C@@H]3C[C@@H]3F)ncc2n1C` [Compound 24, (1S,2S)-2-fluoro-N-(2-(3-hydroxy-2-methylphenyl)-1-methyl-1H-pyrrolo[2,3-c]pyridin-5-yl)cyclopropane-1-carboxamide], the IC50 with K562 cells turned out to be 122 nM; in the experiment on HL60 cells, 794 nM; against ABL1 (T315I) it was 8.34 nM; on ABL1, 9.33 nM.

Take `COc1cccc(C)c1-c1cc2cc(NC(=O)[C@@H]3C[C@@H]3F)ncc2n1C` [Compound 25, (1S,2S)-2-fluoro-N-[2-(2-methoxy-6-methylphenyl)-1-methylpyrrolo[2,3-c]pyridin-5-yl]cyclopropane-1-carboxamide]: the IC50 worked out at 91.7 nM in the experiment with K562 cells, 523 nM in the experiment on HL60 cells, 10.8 nM against ABL1 (T315I) and 10.9 nM on ABL1.

In the case of `COc1cc2[nH]cnc2cc1-c1cc2cc(NC(=O)[C@@H]3C[C@@H]3F)ncc2n1C` [Compound 28, (1S,2S)-2-fluoro-N-(2-(6-methoxy-1H-benzo[d]imidazol-5-yl)-1-methyl-1H-pyrrolo[2,3-c]pyridin-5-yl)cyclopropanecarboxamide formate], the IC50 with K562 cells was 30.4 nM; in the experiment on HL60 cells, 233 nM; against ABL1 (T315I), 19.8 nM; on ABL1, 9.95 nM.

`COc1c(-c2cc3cc(NC(=O)[C@@H]4C[C@@H]4F)ncc3n2C)ccc2[nH]cnc12` [Compound 29, (1S,2S)-2-fluoro-N-[2-(4-methoxy-1H-1,3-benzodiazol-5-yl)-1-methylpyrrolo[2,3-c]pyridin-5-yl]cyclopropane-1-carboxamide]: the IC50 in the experiment with K562 cells is 258 nM; with HL60 cells it was 800 nM; on ABL1 (T315I), 22.2 nM; at ABL1 it was 52 nM.

As for `COc1c(-c2cc3cc(NC(=O)[C@@H]4C[C@@H]4F)ncc3n2C)ccc2cn[nH]c12` [Compound 30, (1S,2S)-2-fluoro-N-(2-(7-methoxy-1H-indazol-6-yl)-1-methyl-1H-pyrrolo[2,3-c]pyridin-5-yl)cyclopropane-1-carboxamide], the IC50 in the experiment on K562 cells amounted to 245 nM; in the experiment on HL60 cells, 320 nM; against ABL1 (T315I), 139 nM; against ABL1, 119 nM.

In the case of `COc1ncccc1-c1cc2cc(NC(=O)[C@H]3C[C@H]3F)ncc2n1C` [Compound 34, (1R,2R)-2-fluoro-N-[2-(2-methoxypyridin-3-yl)-1-methylpyrrolo[2,3-c]pyridin-5-yl]cyclopropane-1-carboxamide], the IC50 in the experiment with K562 cells was determined as 208 nM; with HL60 cells, 3840 nM; against ABL1 (T315I) it was 124 nM; against ABL1, 40.8 nM.

Turning to `CCOc1ncccc1-c1cc2cc(NC(=O)[C@@H]3C[C@@H]3F)ncc2n1C` [Compound 36, (1S,2S)-N-[2-(2-ethoxypyridin-3-yl)-1-methylpyrrolo[2,3-c]pyridin-5-yl]-2-fluorocyclopropane-1-carboxamide], the IC50 was found to be 105 nM with K562 cells, 3630 nM in the experiment on HL60 cells, 308 nM against ABL1 (T315I) and 6.33 nM on ABL1.

For the compound `COc1ccccc1-c1c(C)c2cc(NC(=O)[C@@H]3C[C@@H]3F)ncc2n1C` [Compound 43, (1S,2S)-2-fluoro-N-(2-(2-methoxyphenyl)-1,3-dimethyl-1H-pyrrolo[2,3-c]pyridin-5-yl)cyclopropane-1-carboxamide], the half-inhibitory concentration (IC50) in the experiment with K562 cells is 317 nM; in the experiment with HL60 cells, over 10000 nM; on ABL1 (T315I) it was 24.7 nM; against ABL1 it was 50.2 nM.

Regarding `COc1ccccc1-c1c(C)c2cc(NC(=O)[C@H]3C[C@H]3F)ncc2n1C` [Compound 44, (1R,2R)-2-fluoro-N-[2-(2-methoxyphenyl)-1,3-dimethylpyrrolo[2,3-c]pyridin-5-yl]cyclopropane-1-carboxamide], the IC50 is 368 nM in the experiment with K562 cells, over 10000 nM in the experiment with HL60 cells, 36 nM against ABL1 (T315I) and 74.5 nM against ABL1.

Take `COc1ccccc1-c1c(C#N)c2cc(NC(=O)C3CC3)ncc2n1C` [Compound 47, N-[3-cyano-2-(2-methoxyphenyl)-1-methylpyrrolo[2,3-c]pyridin-5-yl]cyclopropanecarboxamide]: the IC50 with K562 cells is 1360 nM; in the experiment with HL60 cells, over 10000 nM; on ABL1 (T315I) it was 548 nM; at ABL1, 244 nM.

Turning to `COc1ccccc1-c1[nH]c2cc(NC(=O)[C@@H]3C[C@@H]3F)ncc2c1C` [Compound 48, (1S,2S)-2-fluoro-N-[2-(2-methoxyphenyl)-3-methyl-1H-pyrrolo[3,2-c]pyridin-6-yl]cyclopropane-1-carboxamide], the IC50 in the experiment on K562 cells was determined as 85.8 nM; in the experiment with HL60 cells, 808 nM; on ABL1 (T315I), 4.48 nM; against ABL1 it was 31.7 nM.

In the case of `COc1ncccc1-c1c(C)c2cnc(NC(=O)[C@@H]3C[C@@H]3F)cc2n1C` [Compound 56, (1S,2S)-2-fluoro-N-[2-(2-methoxypyridin-3-yl)-1,3-dimethylpyrrolo[3,2-c]pyridin-6-yl]cyclopropane-1-carboxamide], the IC50 with K562 cells came to 240 nM; in the experiment on HL60 cells, 6200 nM; at ABL1 (T315I), 141 nM; at ABL1, 198 nM.

For the compound `COc1ncc(F)cc1-c1c(C)c2cnc(NC(=O)[C@@H]3C[C@@H]3F)cc2n1C` [Compound 57, (1S,2S)-2-fluoro-N-(2-(5-fluoro-2-methoxypyridin-3-yl)-1,3-dimethyl-1H-pyrrolo[3,2-c]pyridin-6-yl)cyclopropane-1-carboxamide], the IC50 in the experiment on K562 cells was found to be 128 nM; with HL60 cells, 4270 nM; against ABL1 (T315I), 83.7 nM; at ABL1, 111 nM.

As to `COc1nccc(C)c1-c1cc2cc(NC(=O)[C@@H]3C[C@@H]3F)ncc2n1C` [Compound 59, (1S,2S)-2-fluoro-N-[2-(2-methoxy-4-methylpyridin-3-yl)-1-methylpyrrolo[2,3-c]pyridin-5-yl]cyclopropane-1-carboxamide], the IC50 stood at 120 nM in the experiment on K562 cells, 1460 nM in the experiment with HL60 cells, 40.7 nM on ABL1 (T315I) and 40.2 nM on ABL1.

Take `COc1ncc(F)cc1-c1c(C)c2cc(NC(=O)[C@@H]3C[C@@H]3F)ncc2n1C` [Compound 60, (1S,2S)-2-fluoro-N-[2-(5-fluoro-2-methoxypyridin-3-yl)-1,3-dimethylpyrrolo[2,3-c]pyridin-5-yl]cyclopropane-1-carboxamide]: the IC50 in the experiment with K562 cells was 718 nM; with HL60 cells, 6490 nM; against ABL1 (T315I), 193 nM; on ABL1, 191 nM.

Turning to `COc1ncccc1-c1c(C)c2cc(NC(=O)[C@@H]3C[C@@H]3F)ncc2n1C` [Compound 61, (1S,2S)-2-fluoro-N-(2-(2-methoxypyridin-3-yl)-1,3-dimethyl-1H-pyrrolo[2,3-c]pyridin-5-yl)cyclopropanecarboxamide], the IC50 came out at 576 nM with K562 cells, 4860 nM in the experiment with HL60 cells, 308 nM against ABL1 (T315I) and 207 nM at ABL1.

Take `[2H]C([2H])([2H])n1c(-c2cccnc2OC)cc2cc(NC(=O)[C@@H]3C[C@@H]3F)ncc21` [Compound 64, (1S,2S)-2-fluoro-N-(2-(2-methoxypyridin-3-yl)-1-(methyl-d3)-1H-pyrrolo[2,3-c]pyridin-5-yl)cyclopropane-1-carboxamide]: the IC50 came to 139 nM with K562 cells, 1610 nM in the experiment with HL60 cells, 47.8 nM against ABL1 (T315I) and 32.5 nM on ABL1.

Usually IC50 stands for the midpoint of a concentration-inhibition curve.
